# Measured values from patent US20080064702A1, “Use of folates for the prevention and treatment of vascular diseases” (priority 2006, published 2008).
# “Also recorded” adds a separate entry of the source. Read-outs that look alike come from different tables or passages of the source.
# What was measured:
# [1] = Peroxynitrite scavenging assay, SIN-1 system with luminol; type: biochemical; conditions: SIN-1 1 μM; for direct peroxynitrite scavenging effect: concentrations as low as 1 μM, 5-MTHF and uric acid at equal concentrations
# Protocol: Superoxide and Peroxynitrite Scavenging Assays. The direct superoxide scavenging effect of 5-MTHF was evaluated with the use of xanthine/xanthine oxidase system. […] The scavenging effects of 5-MTHF, vitamin C or uric acid were calculated as the percent inhibition of chemiluminescence compared with control.
# [2] = ~45 min after 0.13 mg/kg i.v.
# Protocol: (§5) Patients (n=56) undergoing CABG participated in a double-blind placebo controlled study, where they received an intravenous infusion of either 5-MTHF (Merck Eprova, Switzerland) or placebo, administered before the CABG. […] Samples 5 of SV and IMA were harvested ˜45 minutes after the infusion of 5-MTHF (mean time of harvesting 45.7±2.9 minutes after infusion), and assayed for NO-mediated vasomotor function, vascular superoxide production, tissue 5-MTHF and biopterin levels, as described below.
# (§6) Blood samples were collected prior to administration of 5-MTHF or placebo, and at the time of vessel harvesting. […] Plasma and tissue levels of 5-MTHF were determined by high performance liquid chromatography (HPLC), as previously described (Leeming R J et al, Metabolism. 1990; 39:902).
# [3] = 0.13 mg/kg i.v.; for plasma concentration: preliminary studies
# Protocol: as §5, §6
# [4] = test system: saphenous veins and internal mammary arteries; conditions: ca. 45 min after 0.13 mg/kg i.v., vs placebo
# Protocol: (§1) In Vivo Studies. Patients (n=56) undergoing CABG participated in a double-blind placebo controlled study, where they received an intravenous infusion of either 5-MTHF (Merck Eprova, Switzerland) or placebo, administered before the CABG.
# (§2) Superoxide/Peroxynitrite Measurements. Vascular superoxide production was measured from fresh human vessels using lucigenin (5 μM)-enhanced chemiluminescence as previously described (Skatchkov M P et al, Biochem Biophys Res Commun. 1999; 254:319). Samples of SV and IMA from the same patient were opened longitudinally to expose the endothelial surface and then equilibrated for 20 minutes in oxygenated (95% O2/5% CO2) Krebs-HEPES buffer (2 mL, pH=7.4) at 37° C. 14. NOS-derived superoxide was measured by adding L-NAME (100 μM) in the equilibrating buffer, and by calculating the difference in superoxide signal compared with basal conditions. Vascular peroxynitrite was determined using luminol (100 μM) instead of lucigenin, and by subtracting the remaining signal after adding the specific peroxynitrite scavenger uric acid (1 mM), as previously described (Laursen J B et al, Circulation. 2001; 103:1282).
# [5] = Superoxide scavenging assay, xanthine/xanthine oxidase system; type: biochemical
# Protocol: Superoxide and Peroxynitrite Scavenging Assays. The direct superoxide scavenging effect of 5-MTHF was evaluated with the use of xanthine/xanthine oxidase system. Superoxide production was induced by adding xanthine oxidase ([…]/mL) in Krebs HEPES buffer (2 mL, pH=7.4) at 37° C., containing xanthine (0.133 mM) and lucigenin (5 μM), in the presence of 5-MTHF (0-100 μM) or equal concentrations of ascorbic acid as positive control. Peroxynitrite production was induced by adding 3-morpholinosydnonimine (SIN-1, 1 μM) in Krebs HEPES buffer (2 mL, pH=7.4) at 37° C. containing luminol (100 μM), in the presence of different concentrations of 5-MTHF (0-100 μM) or equal concentrations of uric acid as positive control as previously described (Kuzkaya N et al, J Biol Chem. 2003; 278:22546). The scavenging effects of 5-MTHF, vitamin C or uric acid were calculated as the percent inhibition of chemiluminescence compared with control.
# [6] = test system: saphenous veins and internal mammary arteries; conditions: SV and IMA, higher 5-MTHF concentrations (10, 100 μM) compared with 1 μM
# Protocol: (§3) Vessel Harvesting and Ex Vivo Studies. Samples of SV (n=38) and IMA (n=46) from a total of 61 patients, were harvested during CABG operation, as previously described (Channon K M, Trends Cardiovasc Med 2004; 14:323-327; Guzik T J et al., Circulation 2002; 105:1656-1662). Vessel segments were transferred to the laboratory within 30 minutes, in ice cold Krebs-Henseleit buffer. Segments of SV and IMA were incubated with 5-MTHF (0-100 μM) in Krebs-Henseleit buffer for 45 minutes prior to assays of endothelial function, superoxide/peroxynitrite production, radio-labelled arginine/citrulline conversion, western blotting or tissue 5-MTHF and biopterin levels.
# as §2, with “Samples of SV and IMA from the same patient were opened longitudinally to expose the endothelial surface and then equilibrated for 20 minutes in oxygenated (95% O2/5% CO2) Krebs-HEPES buffer (2 mL, pH=7.4) at 37° C. 14.” left out
# saphenous veins [7] = test system: saphenous veins
# Protocol: as §3
# (§4) Vasomotor Studies. Endothelium-dependent and endothelium-independent dilatation were assessed using isometric tension studies, as previously described (Guzik T J et al, Circ Res. 2000; 86:e85). Vessel rings were equilibrated and passively pre-tensioned to 3 g, an optimal resting tension that was determined in baseline studies of contractile response to KCl. Following precontraction with phenylephrine (3×10^−6M), vasomotor responses to the endothelium-mediated agonists acetylcholine (ACh, 10^−9M to 10^−5M) and bradykinin (BK, 10^−9 M to 10^−5M), were quantified in 4 equally sized segments from the same vessel. In the ex vivo experiments, vasomotor responses were repeated after incubation for 45 minutes with 0 (control), 1, 10 or 100 μM 5-MTHF, added to the organ bath chambers. Finally, relaxations to the NO donor sodium nitroprusside (SNP, 10^−10M to 10^−6M), were evaluated in the presence of the NOS inhibitor NG-nitro-L-arginine methyl ester (L-NAME; 100 μM).
# saphenous veins [8] = test system: saphenous veins; remark: listed apart in the source
# Protocol: as §1, §4
# [9] = 45 minutes after infusion of 5-MTHF; from 11.0±0.62 before
# Excerpt: as §1
# [10] = test system: saphenous veins and internal mammary arteries; conditions: IMA, 45 min ex vivo with 1 μM 5-MTHF, vs control
# Protocol: as §3
# Determination of Biopterin Levels. Biopterin levels in human vessels were determined by HPLC, as previously described (Alp N J et al, J Clin Invest. 2003; 112:725) and expressed as pmol/g of tissue. To examine the effect of 5-MTHF on peroxynitrite-induced oxidation of BH4, SIN-1 (2 μM) was used to oxidize BH4 (0.1 μM) in the presence or absence of 5-MTHF (1 μM) at 37° C. for 14 minutes (Milstien S and Katusic Z. Biochem Biophys Res Commun. 1999; 263:681).
# vascular endothelium = conditions: vessels from 5-MTHF-treated patients
# Protocol: as §1
# Oxidative Fluorescent Microtopography. In situ superoxide production was determined in vessel cryosections with the oxidative fluorescent dye dihydroethidium (DHE) (Bendall J K et al, Circ Res. 2005; 97:864). Paired cryosections ([…]) from the same vessel were incubated with DHE (2 μmol/L) in PBS, with or without L-NAME (100 μM). Fluorescence images (x40, Zeiss LSM 510 META laser 6 scanning confocal microscope) were obtained from each vessel quadrant, incorporating the luminal side of the vessel to quantify endothelial cell fluorescence. In each case, segments of vessel rings (with and without L-NAME) were analyzed in parallel with identical imaging parameters. DHE image analysis was carried out in a blinded fashion, and by two independent investigators, by using Image-Pro Plus software (Media Cybernetics).
# eNOS = eNOS (Homo sapiens, UniProt P29474); conditions: IMA, 5-MTHF 1 μM for 45 minutes; paired control 0.14±0.02%/g
# Protocol: as §3
# [11] = SV, 45 min
# Protocol: Plasma and tissue levels of 5-MTHF were determined by high performance liquid chromatography (HPLC), as previously described (Leeming R J et al, Metabolism. 1990; 39:902).
# [12] = 5-MTHF 10 or 100 μM compared with 1 μM
# [13] = SV segments ~45 min after 0.13 mg/kg i.v., vs placebo
# Sequence of eNOS (P29474 2-1203 limits assumed): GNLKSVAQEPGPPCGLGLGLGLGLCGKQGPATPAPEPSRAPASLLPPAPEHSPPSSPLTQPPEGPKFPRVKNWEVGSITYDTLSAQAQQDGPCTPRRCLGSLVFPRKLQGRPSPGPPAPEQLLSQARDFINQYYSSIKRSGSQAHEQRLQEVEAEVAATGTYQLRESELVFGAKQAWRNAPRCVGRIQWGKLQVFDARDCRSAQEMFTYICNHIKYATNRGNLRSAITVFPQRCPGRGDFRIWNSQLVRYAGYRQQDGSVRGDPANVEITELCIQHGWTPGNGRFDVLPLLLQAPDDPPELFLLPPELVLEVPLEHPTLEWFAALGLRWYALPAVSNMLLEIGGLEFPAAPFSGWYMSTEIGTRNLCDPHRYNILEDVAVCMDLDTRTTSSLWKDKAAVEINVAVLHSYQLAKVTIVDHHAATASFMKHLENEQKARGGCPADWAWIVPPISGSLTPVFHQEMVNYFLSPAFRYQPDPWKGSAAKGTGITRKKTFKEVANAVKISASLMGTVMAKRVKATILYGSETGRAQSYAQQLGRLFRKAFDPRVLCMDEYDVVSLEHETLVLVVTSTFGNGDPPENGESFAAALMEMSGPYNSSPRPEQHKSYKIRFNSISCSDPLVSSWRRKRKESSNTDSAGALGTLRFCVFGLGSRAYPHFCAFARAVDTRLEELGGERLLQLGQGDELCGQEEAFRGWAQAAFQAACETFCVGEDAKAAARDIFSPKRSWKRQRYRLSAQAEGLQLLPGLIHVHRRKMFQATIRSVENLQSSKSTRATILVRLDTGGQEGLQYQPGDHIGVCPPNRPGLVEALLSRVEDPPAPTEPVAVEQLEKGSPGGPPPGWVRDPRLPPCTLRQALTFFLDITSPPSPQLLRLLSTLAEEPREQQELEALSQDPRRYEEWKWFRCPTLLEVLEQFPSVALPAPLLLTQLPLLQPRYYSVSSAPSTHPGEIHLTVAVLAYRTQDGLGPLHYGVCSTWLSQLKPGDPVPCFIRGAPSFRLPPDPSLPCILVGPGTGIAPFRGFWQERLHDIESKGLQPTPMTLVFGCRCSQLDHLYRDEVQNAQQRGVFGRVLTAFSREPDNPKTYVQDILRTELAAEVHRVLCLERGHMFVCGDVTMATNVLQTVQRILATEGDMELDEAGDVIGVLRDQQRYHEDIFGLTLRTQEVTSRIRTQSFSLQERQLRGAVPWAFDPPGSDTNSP
smiles,measurement,setting,value
"CN1c2c(nc(N)[nH]c2=O)NCC1CNc1ccc(C(=O)N[C@@H](CCC(=O)O)C(=O)O)cc1 (stereo partly shown) [5-MTHF, 5-methyltetrahydrofolate]",direct peroxynitrite scavenging effect,[1],strong direct peroxynitrite scavenging effect; also recorded: potent scavenging effect
same,reduction of measurable peroxynitrite,[1]; at 1 μM,75%
same,tissue 5-MTHF levels,"[2]; IMA, placebo 1.54±0.38",12.7 ± 2.58 nmol/g
same,tissue 5-MTHF levels,"[2]; SV, placebo 1.19±0.25",9.35 ± 1.72 nmol/g
same,plasma concentration,[3]; 45 minutes after infusion,1000 to 2000 nM
same,plasma 5-MTHF levels,"[3]; at the time of vessel harvesting (~45 min), 5-MTHF-treated group",2.28 ± 0.21 µM
same,plasma concentration,[3]; immediately after administration,2000 to 3000 nM
same,vascular superoxide,[4]; IMA,significantly lower
same,vascular superoxide,[4]; SV,significantly lower
same,effect on measurable superoxide,[5]; low concentrations (1-10 μM),no detectable effect
same,superoxide scavenging effect,[5]; only at concentrations >10 μM (FIG. 5A),weak superoxide scavenging effect
same,superoxide scavenging,[5]; very high concentrations (100 μM),only modest superoxide scavenging
same,vascular peroxynitrite production,[6],no further reductions
same,vascular superoxide production,[6],no further reductions
same,maximum relaxations to Ach,saphenous veins [7]; [12],no further increase
same,maximum relaxations to BK,saphenous veins [7]; [12],no further increase
same,vasomotor responses to the endothelium-independent agonist SNP,"saphenous veins [7]; 5-MTHF-incubated vs control vessel segments, data not shown",no differences
same,absolute contractions in response to phenylephrine after incubation,"saphenous veins [7]; baseline 7.9±0.8 g, after incubation",remained unchanged
same,absolute pre-contractions to phenylephrine,"saphenous veins [8]; 5-MTHF-treated group, placebo 7.72±1.31 g",8.20 ± 1.26 g
same,vasomotor responses to acetylcholine (ACh),saphenous veins [8]; [13],significantly greater
same,vasomotor responses to bradykinin (BK),saphenous veins [8]; [13],significantly greater
same,maximal vasorelaxations to ACh,"saphenous veins [8]; SV segments ~45 min after 0.13 mg/kg i.v., placebo 19.4±3.3%",43.2±4.5%
same,maximal vasorelaxations to BK,"saphenous veins [8]; SV segments ~45 min after 0.13 mg/kg i.v., placebo 37.1±3.7%",51.4±4.2%
same,plasma tHcy,[9],9.42 ± 0.46 µmol/L
same,BH4/tBio ratio,[10],increased
same,vascular BH4,[10],increased
same,DHE fluorescence in other regions of the vessel wall,vascular endothelium,unaffected
same,citrulline production (conversion of radio-labelled arginine to citrulline),eNOS,0.20±0.03 %/g tissue
same,vascular 5-MTHF levels,"[11]; incubation with 5-MTHF 1 μM, control 0.40±0.06",3.40±0.71 nmol/g tissue
same,vascular 5-MTHF levels,[11]; incubation with 5-MTHF 10 μM,21.3±8.10 nmol/g tissue
same,vascular 5-MTHF levels,[11]; incubation with 5-MTHF 100 μM,57.2±18.9 nmol/g tissue
"O=C1O[C@H]([C@@H](O)CO)C(O)=C1O [ascorbic acid, reference compound]",reduction of measurable superoxide,[5]; at 1 μM,50%
same,superoxide scavenging effect,[5]; even at low concentrations (FIG. 5A),expected scavenging effect
"O=c1[nH]c(=O)c2[nH]c(=O)[nH]c2[nH]1 [uric acid, reference compound]",direct peroxynitrite scavenging effect,[1],comparable
